“And” between values parts separate entries of the source, which are not always exact repeats. Identical values can stand only once.
What was measured:
[1] = cited from earlier work
[2] = Identification of radiolabeled FAs in brain phospholipids by HPLC and LSC after 14C-EPA infusion; type: in vivo, rat; conditions: for percent of total radiolabeled FAs: brain total phospholipids;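 as to radiolabeled FA composition: percent of radiolabeled FAs within each phospholipid class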
Method: (§1) Twenty-four hours postsurgery, a second catheter (iv catheter 24 gauge/0.75 inch, Angiocath™; Becton Dickinson) was implanted into the tail vein where rats received either vehicle or 10 mg/kg of MEP. Ten minutes post injection of vehicle or MEP, the tail vein catheter was connected to a syringe containing radiolabeled ^14C-palmitate (n = 8), ^14C-DHA (n = 6), or ^14C-EPA (n = 7) attached to a computer-controlled variable speed pump (PHD 22/2000; Harvard Apparatus, Holliston, MA). […] Each rat received a dose of 76 μCi ^14C-palmitate, 76 μCi ^14C-DHA, or 78 μCi ^14C-EPA. […] The radiotracer infusions continued until rats were euthanized. The brain was excised and cut sagittally. Both hemispheres were stored at −80°C for radioactive and biochemical analyses. Plasma was isolated from whole blood via microcentrifugation at 6,200 rpm (2,000 g) for 5 min and stored at −80°C. Total lipids from one brain hemisphere and from plasma were extracted by the method of Folch, Lees, and Sloane Stanley ([39]). Isolation of various neutral lipid and phospholipid classes from the total lipid extract was previously described by Chen, Liu, and Bazinet ([6]). FA methyl esters and radioactive acyl-CoA analysis were previously described by Chen, Liu, and Bazinet ([6]).

[3] = In vivo kinetics of FA incorporation and turnover in brain phospholipids (intravenous radiotracer infusion, kinetic model); design: species or system rat
Method: Twenty-four hours postsurgery, a second catheter (iv catheter 24 gauge/0.75 inch, Angiocath™; Becton Dickinson) was implanted into the tail vein where rats received either vehicle or 10 mg/kg of MEP. […] The radiotracers were infused for 5 min via the tail vein catheter at a rate of 0.223(1 + e^−19.2t) ml/min (t is infusion time in minutes) ([37]) which achieves a steady-state plasma radioactivity within 1 min ([18], [38]). […] During the 5 min infusion, blood samples were collected from the jugular vein at approximately 0, 0.25, 0.5, 0.75, 1.5, 3, 4, and 5 min while the unanesthetized rat was mobile in the infusion box with food and water. […] After 5 min, the rats were rapidly euthanized by head-focused high-energy microwave irradiation (13.5 kW for 1.6 s; Cober Electronics Inc., Stratford, CT). The radiotracer infusions continued until rats were euthanized. The brain was excised and cut sagittally. Both hemispheres were stored at −80°C for radioactive and biochemical analyses. Plasma was isolated from whole blood via microcentrifugation at 6,200 rpm (2,000 g) for 5 min and stored at −80°C.
The model for in vivo kinetics of brain FAs in rats has been previously described ([17], [18], [21], [23], [25], [37], [41]).
Because the infusion is 5 min, contributions of FA from de novo synthesis and esterified plasma FA are negligible ([18], [20], [23], [41]); thus only contributions from plasma unesterified FAs and acyl-CoA pools were considered in the calculation of λpalmitate, DHA, or EPA .

[4] = test system: mitochondrial FA β-oxidation; experiment: Radioactivity in brain aqueous fraction (marker of β-oxidation) after 5 min intravenous 14C-tracer infusion; type: in vivo, rat; conditions: vehicle injection; 5 min iv infusion of tracer
Method: as §1, with “([6]).” for “([6]). FA methyl esters and radioactive acyl-CoA analysis were previously described by Chen, Liu, and Bazinet ([6]).”

[5] = cited from earlier work; remark: listed apart in the source

SMILES: CC/C=C\C/C=C\C/C=C\C/C=C\C/C=C\C/C=C\CCC(=O)O [DHA, docosahexaenoic acid]
- Jin, reported [1]: 150 to 190 nmol/g/day
- radiolabeled FA composition ([2]; ChoGpl, MEP-treated rats): 4%
- radiolabeled FA composition ([2]; ChoGpl, vehicle-treated rats): 11%
- radiolabeled FA composition ([2]; EtnGpl, MEP-treated rats): 14%
- radiolabeled FA composition ([2]; EtnGpl, vehicle-treated rats): 29%
- percent of total radiolabeled FAs ([2]; MEP-treated rats): 3%
- percent of total radiolabeled FAs ([2]; vehicle-treated rats): 10%
- FFA rate of turnover ([3]; ChoGpl, MEP): 90 ± 20 %/day
- JFA net incorporation rate from brain acyl-CoA ([3]; ChoGpl, MEP): 1,234 ± 344 nmol/g/day
- Jin net incorporation rate from plasma unesterified FA ([3]; ChoGpl, MEP): 4.3 ± 0.38 nmol/g/day
- FFA rate of turnover ([3]; ChoGpl, Vehicle): 150 ± 14 %/day
- JFA net incorporation rate from brain acyl-CoA ([3]; ChoGpl, Vehicle): 2,146 ± 225 nmol/g/day
- Jin net incorporation rate from plasma unesterified FA ([3]; ChoGpl, Vehicle): 5.2 ± 0.62 nmol/g/day
- FFA rate of turnover ([3]; EtnGpl, MEP): 37 ± 9.6 %/day
- JFA net incorporation rate from brain acyl-CoA ([3]; EtnGpl, MEP): 2,030 ± 492 nmol/g/day
- Jin net incorporation rate from plasma unesterified FA ([3]; EtnGpl, MEP): 7.2 ± 1.2 nmol/g/day
- FFA rate of turnover ([3]; EtnGpl, Vehicle): 55 ± 5.4 %/day
- JFA net incorporation rate from brain acyl-CoA ([3]; EtnGpl, Vehicle): 3,233 ± 184 nmol/g/day
- Jin net incorporation rate from plasma unesterified FA ([3]; EtnGpl, Vehicle): 7.9 ± 1.4 nmol/g/day
- FFA rate of turnover ([3]; PtdIns, MEP): 308 ± 105 %/day
- JFA net incorporation rate from brain acyl-CoA ([3]; PtdIns, MEP): 477 ± 106 nmol/g/day
- Jin net incorporation rate from plasma unesterified FA ([3]; PtdIns, MEP): 1.7 ± 0.3 nmol/g/day
- FFA rate of turnover ([3]; PtdIns, Vehicle): 458 ± 156 %/day
- JFA net incorporation rate from brain acyl-CoA ([3]; PtdIns, Vehicle): 688 ± 144 nmol/g/day
- Jin net incorporation rate from plasma unesterified FA ([3]; PtdIns, Vehicle): 1.8 ± 0.078 nmol/g/day
- FFA rate of turnover ([3]; PtdSer, MEP): 8.4 ± 3.1 %/day
- JFA net incorporation rate from brain acyl-CoA ([3]; PtdSer, MEP): 198 ± 79 nmol/g/day
- Jin net incorporation rate from plasma unesterified FA ([3]; PtdSer, MEP): 0.68 ± 0.11 nmol/g/day
- FFA rate of turnover ([3]; PtdSer, Vehicle): 9.2 ± 2.1 %/day
- JFA net incorporation rate from brain acyl-CoA ([3]; PtdSer, Vehicle): 237 ± 50 nmol/g/day
- Jin net incorporation rate from plasma unesterified FA ([3]; PtdSer, Vehicle): 0.56 ± 0.053 nmol/g/day
- FFA rate of turnover ([3]; Total PL, MEP): 51 ± 10 %/day
- JFA net incorporation rate from brain acyl-CoA ([3]; Total PL, MEP): 4,390 ± 988 nmol/g/day
- Jin net incorporation rate from plasma unesterified FA ([3]; Total PL, MEP): 16 ± 1.2 nmol/g/day
- FFA rate of turnover ([3]; Total PL, Vehicle): 75 %/day and 75 ± 7.7 %/day
- JFA net incorporation rate from brain acyl-CoA ([3]; Total PL, Vehicle): 7,259 ± 958 nmol/g/day
- Jin net incorporation rate from plasma unesterified FA ([3]; Total PL, Vehicle): 17 nmol/g/day and 17 ± 1.8 nmol/g/day
- Jin, percent lower than reported Jin ([3]; rat, in vivo): 89–91%
- fold difference in λ between DHA and EPA ([3]; rat, in vivo): 50 fold
- λ dilution factor ([3]; vehicle): 0.0024 ± 0.0003
- FFA into brain total phospholipids, fold higher than EPA ([3]; vehicle injection): 4 fold
- Jin into brain total phospholipids, fold higher than EPA ([3]; vehicle injection): 3 fold
- t1/2, fold lower than EPA ([3]; vehicle injection): 4 fold
- radioactivity of brain aqueous fraction [4]: 17 nCi/g brain
- Jout net rate of loss from brain phospholipids [5]: 58 to 257 nmol/g/day
- loss t1/2 from brain phospholipids [5]: 33 days
- rate of loss from brain phospholipids [5]: 2 % per day
